Assay results published in ChEMBL document CHEMBL1136216, “Potent quinoxaline-based inhibitors of PDGF receptor tyrosine kinase activity. Part 2: the synthesis and biological activities of RPR127963 an orally bioavailable inhibitor” (Bioorg Med Chem Lett, 2003).
One block for each molecule: values may come before it.

What was measured:
[1] = target: T1, Platelet-derived growth factor receptor (Homo sapiens, UniProt P09619+P16234); experiment: Inhibition of Platelet-derived growth factor receptor; format: protein-complex assay
[2] = target: Vascular endothelial growth factor receptor (Homo sapiens) (UniProt P17948+P35916+P35968); experiment: Inhibition of VEGF receptor kinase at 30 uM; format: protein assay
Sequence of Vascular endothelial growth factor receptor (Homo sapiens) (P17948 whole entry, looked up): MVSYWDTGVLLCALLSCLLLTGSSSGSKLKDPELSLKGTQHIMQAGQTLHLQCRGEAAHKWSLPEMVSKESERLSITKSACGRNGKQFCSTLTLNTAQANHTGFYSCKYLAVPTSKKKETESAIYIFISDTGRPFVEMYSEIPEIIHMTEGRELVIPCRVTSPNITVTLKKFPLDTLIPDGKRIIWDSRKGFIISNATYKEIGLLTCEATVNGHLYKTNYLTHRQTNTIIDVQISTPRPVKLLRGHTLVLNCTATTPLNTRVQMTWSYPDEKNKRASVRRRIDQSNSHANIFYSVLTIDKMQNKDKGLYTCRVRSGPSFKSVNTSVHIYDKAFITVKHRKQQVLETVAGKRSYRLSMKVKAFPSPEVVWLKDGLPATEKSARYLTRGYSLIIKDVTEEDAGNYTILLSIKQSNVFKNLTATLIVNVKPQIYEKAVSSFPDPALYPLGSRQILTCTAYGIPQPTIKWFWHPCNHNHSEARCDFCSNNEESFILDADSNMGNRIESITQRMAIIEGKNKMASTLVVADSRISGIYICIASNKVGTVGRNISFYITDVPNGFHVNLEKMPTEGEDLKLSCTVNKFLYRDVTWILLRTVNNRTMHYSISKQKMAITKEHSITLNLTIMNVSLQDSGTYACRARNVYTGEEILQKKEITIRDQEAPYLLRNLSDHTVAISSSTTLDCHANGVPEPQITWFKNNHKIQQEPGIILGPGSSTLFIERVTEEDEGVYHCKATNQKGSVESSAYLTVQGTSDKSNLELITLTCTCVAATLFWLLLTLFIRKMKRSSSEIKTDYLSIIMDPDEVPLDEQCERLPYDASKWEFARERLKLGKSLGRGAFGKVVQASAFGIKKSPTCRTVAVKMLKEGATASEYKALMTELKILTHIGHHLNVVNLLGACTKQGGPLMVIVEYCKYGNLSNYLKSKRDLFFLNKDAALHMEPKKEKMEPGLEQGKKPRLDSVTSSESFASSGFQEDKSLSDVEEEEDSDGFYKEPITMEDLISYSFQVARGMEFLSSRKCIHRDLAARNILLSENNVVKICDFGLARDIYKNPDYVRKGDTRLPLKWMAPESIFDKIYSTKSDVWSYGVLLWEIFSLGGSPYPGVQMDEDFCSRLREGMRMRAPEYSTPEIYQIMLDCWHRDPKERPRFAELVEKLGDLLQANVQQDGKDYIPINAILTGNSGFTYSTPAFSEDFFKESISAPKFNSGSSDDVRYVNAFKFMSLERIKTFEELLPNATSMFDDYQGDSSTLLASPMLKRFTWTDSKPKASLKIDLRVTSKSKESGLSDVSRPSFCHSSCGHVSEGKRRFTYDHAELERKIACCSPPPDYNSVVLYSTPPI
Sequence of Vascular endothelial growth factor receptor (Homo sapiens) (P35916 whole entry, looked up): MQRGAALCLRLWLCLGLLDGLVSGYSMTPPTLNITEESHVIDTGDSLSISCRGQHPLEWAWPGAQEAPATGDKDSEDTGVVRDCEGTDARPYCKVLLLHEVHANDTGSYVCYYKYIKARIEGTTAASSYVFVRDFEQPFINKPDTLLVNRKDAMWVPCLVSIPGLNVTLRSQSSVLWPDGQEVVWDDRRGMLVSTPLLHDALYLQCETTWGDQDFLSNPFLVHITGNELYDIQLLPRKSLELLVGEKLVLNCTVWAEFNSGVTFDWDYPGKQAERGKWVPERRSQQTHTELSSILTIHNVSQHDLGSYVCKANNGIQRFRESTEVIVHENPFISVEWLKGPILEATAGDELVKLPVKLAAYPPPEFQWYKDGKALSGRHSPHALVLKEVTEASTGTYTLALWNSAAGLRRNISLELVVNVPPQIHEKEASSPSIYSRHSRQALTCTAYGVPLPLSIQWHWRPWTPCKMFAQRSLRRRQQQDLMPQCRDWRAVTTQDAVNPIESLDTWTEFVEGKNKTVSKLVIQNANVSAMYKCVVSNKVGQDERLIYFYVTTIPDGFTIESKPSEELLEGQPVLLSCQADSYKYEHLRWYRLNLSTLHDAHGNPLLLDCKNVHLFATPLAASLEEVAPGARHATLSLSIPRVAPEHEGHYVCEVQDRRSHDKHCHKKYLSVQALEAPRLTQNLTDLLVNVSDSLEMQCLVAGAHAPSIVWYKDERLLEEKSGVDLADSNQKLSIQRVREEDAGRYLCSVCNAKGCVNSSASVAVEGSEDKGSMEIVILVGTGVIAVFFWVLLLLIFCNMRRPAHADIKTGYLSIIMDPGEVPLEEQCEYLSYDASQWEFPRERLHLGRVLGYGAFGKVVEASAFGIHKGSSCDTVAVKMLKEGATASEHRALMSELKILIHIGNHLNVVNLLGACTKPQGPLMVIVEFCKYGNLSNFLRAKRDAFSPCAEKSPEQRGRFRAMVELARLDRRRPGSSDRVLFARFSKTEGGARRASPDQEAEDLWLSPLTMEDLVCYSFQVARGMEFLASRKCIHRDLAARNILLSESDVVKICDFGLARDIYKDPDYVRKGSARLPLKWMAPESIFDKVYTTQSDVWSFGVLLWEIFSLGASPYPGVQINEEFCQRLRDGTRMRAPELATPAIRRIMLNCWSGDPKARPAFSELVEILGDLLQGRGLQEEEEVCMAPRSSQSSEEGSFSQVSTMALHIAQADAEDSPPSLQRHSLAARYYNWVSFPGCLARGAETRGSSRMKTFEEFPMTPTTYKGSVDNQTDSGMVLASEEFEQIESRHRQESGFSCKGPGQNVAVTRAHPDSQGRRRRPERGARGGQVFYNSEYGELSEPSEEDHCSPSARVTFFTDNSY
Sequence of Vascular endothelial growth factor receptor (Homo sapiens) (P35968 whole entry, looked up): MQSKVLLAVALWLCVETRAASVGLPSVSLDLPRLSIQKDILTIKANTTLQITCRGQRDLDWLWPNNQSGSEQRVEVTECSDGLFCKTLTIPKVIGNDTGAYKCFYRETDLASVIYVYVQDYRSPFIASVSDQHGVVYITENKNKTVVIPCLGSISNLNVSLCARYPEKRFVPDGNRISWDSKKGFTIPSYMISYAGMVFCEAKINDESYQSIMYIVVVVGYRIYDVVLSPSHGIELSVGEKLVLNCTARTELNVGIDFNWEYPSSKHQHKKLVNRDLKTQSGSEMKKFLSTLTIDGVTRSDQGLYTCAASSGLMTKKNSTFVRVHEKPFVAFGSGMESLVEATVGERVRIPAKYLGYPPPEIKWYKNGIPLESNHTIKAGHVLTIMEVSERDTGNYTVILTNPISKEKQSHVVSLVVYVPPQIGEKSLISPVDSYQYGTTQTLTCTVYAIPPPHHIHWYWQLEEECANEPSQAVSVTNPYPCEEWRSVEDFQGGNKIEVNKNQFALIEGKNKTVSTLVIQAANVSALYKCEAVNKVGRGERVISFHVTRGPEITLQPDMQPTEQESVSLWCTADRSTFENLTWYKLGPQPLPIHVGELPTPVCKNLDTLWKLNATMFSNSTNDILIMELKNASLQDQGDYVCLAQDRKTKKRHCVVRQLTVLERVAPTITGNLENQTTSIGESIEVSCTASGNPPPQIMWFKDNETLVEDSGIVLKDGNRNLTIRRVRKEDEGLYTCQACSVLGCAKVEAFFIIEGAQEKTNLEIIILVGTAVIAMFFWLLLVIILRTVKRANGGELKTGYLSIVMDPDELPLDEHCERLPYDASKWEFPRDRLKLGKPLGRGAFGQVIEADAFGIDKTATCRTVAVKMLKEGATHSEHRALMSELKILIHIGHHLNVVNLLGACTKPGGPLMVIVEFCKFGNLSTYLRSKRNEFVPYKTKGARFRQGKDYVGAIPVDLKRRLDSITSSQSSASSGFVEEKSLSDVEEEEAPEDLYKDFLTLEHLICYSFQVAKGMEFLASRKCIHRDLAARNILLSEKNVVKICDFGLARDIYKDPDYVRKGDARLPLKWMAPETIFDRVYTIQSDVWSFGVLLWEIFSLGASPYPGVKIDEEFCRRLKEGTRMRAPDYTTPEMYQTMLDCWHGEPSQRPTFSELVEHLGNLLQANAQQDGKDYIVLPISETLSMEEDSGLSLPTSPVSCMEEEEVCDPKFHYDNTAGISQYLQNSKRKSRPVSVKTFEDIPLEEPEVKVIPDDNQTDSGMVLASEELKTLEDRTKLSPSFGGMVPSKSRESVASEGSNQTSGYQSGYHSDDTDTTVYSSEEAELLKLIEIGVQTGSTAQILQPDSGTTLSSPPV

[3] = target: c-Jun N-terminal kinase, JNK (Homo sapiens, UniProt P45983+P53779+P45984); experiment: Inhibition of JNK, c-Jun N-terminal kinase; format: protein assay
[4] = target: T2, Tyrosine-protein kinase ZAP-70 (Homo sapiens) (UniProt P43403); experiment: Inhibition of Zeta-chain (TCR) associated protein kinase 70kDa, Zap70 at 10 uM
T2 sequence (whole entry): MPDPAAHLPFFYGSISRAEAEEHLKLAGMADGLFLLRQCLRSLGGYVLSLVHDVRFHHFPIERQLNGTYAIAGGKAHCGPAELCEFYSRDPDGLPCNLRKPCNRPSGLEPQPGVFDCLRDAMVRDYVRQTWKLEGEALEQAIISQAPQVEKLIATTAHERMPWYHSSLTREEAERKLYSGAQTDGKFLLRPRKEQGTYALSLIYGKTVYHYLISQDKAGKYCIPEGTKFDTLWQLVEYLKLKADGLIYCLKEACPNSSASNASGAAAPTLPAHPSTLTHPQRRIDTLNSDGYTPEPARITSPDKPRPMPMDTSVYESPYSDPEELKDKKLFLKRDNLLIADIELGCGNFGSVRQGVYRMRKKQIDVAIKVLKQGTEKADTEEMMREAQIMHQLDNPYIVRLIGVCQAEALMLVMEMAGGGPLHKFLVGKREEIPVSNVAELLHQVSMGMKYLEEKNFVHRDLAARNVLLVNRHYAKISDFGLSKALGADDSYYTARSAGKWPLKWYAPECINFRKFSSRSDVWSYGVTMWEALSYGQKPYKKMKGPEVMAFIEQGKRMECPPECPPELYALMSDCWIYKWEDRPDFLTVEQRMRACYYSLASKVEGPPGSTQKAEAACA

[5] = Inhibition of Collagen production; format: functional
[6] = target: Protein kinase C (PKC) (Homo sapiens) (UniProt O94806+P41743+P17252+P05129+Q05655+P05771+Q05513+Q02156+P24723+Q15139+Q04759); experiment: Inhibition of Protein kinase C at 100 uM; format: protein assay
[7] = % Bioavailability after 1 day of the drug administration in rats; format: ADME, organism-based; conditions: rat, in vivo
[8] = target: Tyrosine-protein kinase SYK (Homo sapiens) (UniProt P43405); experiment: Inhibition of Syk tyrosine kinase at 10 uM
[9] = target: T3, Tyrosine-protein kinase JAK3 (Homo sapiens, UniProt P52333); experiment: Inhibition of Janus kinase 3
T3 sequence (P52333 whole entry): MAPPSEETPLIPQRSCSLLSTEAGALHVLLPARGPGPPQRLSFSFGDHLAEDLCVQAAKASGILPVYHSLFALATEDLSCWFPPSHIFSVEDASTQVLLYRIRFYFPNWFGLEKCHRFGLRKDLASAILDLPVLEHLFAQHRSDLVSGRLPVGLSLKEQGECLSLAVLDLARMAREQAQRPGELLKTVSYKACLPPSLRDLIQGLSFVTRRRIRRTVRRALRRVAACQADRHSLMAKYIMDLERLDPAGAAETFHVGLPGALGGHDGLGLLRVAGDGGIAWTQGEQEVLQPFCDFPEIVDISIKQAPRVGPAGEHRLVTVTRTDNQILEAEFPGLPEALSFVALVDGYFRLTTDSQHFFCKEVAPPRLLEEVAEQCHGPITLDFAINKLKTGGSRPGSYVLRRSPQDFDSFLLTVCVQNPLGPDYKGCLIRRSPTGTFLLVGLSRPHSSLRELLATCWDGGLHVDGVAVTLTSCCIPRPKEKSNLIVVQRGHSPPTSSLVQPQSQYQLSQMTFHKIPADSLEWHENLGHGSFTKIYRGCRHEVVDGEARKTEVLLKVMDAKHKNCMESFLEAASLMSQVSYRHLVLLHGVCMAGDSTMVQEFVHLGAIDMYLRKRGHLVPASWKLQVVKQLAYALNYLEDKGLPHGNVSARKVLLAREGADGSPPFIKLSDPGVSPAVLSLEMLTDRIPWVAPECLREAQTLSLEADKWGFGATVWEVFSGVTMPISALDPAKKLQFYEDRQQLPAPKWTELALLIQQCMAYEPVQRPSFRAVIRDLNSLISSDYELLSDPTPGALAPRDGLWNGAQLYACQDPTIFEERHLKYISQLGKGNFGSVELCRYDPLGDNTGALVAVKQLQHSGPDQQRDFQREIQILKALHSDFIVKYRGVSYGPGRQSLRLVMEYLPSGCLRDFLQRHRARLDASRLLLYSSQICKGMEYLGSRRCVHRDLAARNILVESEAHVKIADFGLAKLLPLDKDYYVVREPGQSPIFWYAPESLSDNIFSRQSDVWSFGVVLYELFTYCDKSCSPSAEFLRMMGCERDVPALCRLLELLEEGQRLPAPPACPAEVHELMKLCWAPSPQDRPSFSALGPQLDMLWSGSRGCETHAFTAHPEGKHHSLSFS

[10] = target: Macrophage colony-stimulating factor 1 receptor (Homo sapiens) (UniProt P07333); experiment: Inhibition of Colony stimulating factor 1 receptor at 30 uM
Sequence of Macrophage colony-stimulating factor 1 receptor (Homo sapiens) (P07333 whole entry): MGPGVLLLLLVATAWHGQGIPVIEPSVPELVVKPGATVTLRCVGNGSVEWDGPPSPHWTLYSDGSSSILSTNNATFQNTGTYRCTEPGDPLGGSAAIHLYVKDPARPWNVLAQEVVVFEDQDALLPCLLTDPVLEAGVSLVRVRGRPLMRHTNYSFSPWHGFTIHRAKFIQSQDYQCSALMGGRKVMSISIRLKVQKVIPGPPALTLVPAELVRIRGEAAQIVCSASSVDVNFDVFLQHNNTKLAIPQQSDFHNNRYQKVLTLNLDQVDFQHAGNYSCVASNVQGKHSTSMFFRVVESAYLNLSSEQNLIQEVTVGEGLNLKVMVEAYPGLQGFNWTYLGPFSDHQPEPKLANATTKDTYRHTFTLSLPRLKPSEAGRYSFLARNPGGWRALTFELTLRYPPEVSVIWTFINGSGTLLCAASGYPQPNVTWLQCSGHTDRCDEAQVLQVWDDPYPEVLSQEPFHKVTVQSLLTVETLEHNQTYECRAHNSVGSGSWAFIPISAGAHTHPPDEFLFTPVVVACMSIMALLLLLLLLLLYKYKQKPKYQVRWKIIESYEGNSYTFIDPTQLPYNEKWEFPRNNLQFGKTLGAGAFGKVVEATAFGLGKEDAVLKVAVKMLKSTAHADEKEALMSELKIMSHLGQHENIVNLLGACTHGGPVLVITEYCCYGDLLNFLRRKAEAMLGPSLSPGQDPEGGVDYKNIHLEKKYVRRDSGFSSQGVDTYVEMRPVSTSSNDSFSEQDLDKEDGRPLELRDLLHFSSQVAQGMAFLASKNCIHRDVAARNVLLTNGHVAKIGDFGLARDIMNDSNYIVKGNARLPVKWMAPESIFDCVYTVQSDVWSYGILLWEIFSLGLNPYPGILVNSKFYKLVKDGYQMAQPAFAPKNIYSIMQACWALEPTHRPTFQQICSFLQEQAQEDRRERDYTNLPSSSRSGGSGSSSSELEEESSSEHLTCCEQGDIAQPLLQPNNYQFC

[11] = target: cAMP-dependent protein kinase (PKA) (Homo sapiens) (UniProt P22694+P17612+P22612); experiment: Inhibition of Protein kinase A at 100 uM; format: protein assay
[12] = % Bioavailability after 4 day of the drug administration in rats; format: ADME, organism-based; conditions: rat, in vivo
[13] = target: Hepatocyte growth factor receptor (Homo sapiens) (UniProt P08581); experiment: Inhibition of Hepatocyte growth factor receptor at 30 uM; format: cell-based
[14] = target: Insulin-like growth factor 1 receptor (Homo sapiens, UniProt P08069); experiment: Inhibitory concentration against IGF kinase was determined.
[15] = target: Tyrosine-protein kinase JAK2 (Homo sapiens, UniProt O60674); experiment: Inhibition of Janus kinase 2
[16] = target: T1, Platelet-derived growth factor receptor; experiment: Inhibition of Platelet-derived growth factor receptor at 1 uM; format: protein-complex assay
HASMC = experiment: Inhibition of mitogenesis in human aortic smooth muscle cells (HASMC); format: functional, cell-based
[17] = target: T1, Platelet-derived growth factor receptor; experiment: Inhibition of Platelet-derived growth factor receptor at 10 uM; format: protein-complex assay
[18] = Bioavailability in rat after 4 day dosing; format: ADME, organism-based; conditions: in vivo
[19] = Bioavailability in rat after 1 day dosing; format: ADME, organism-based; conditions: in vivo

SMILES: COC(=O)C1CCC(Nc2cnc3cc(OC)c(OC)cc3n2)CC1 (stereo not drawn)
- IC50 [1]: 0.049 µM

SMILES: COc1cc2ncc(NC3CCC(C(N)=O)CC3)nc2cc1OC (stereo not drawn)
- IC50 [1]: 0.93 µM

SMILES: COc1cc2ncc(NC3CCC(C(=O)O)CC3)nc2cc1OC (stereo not drawn)
- inhibition [16]: 15%

SMILES: CNC(=O)C1CCC(Nc2cnc3cc(OC)c(OC)cc3n2)CC1 (stereo not drawn)
- IC50 [1]: 3.1 µM

SMILES: COc1cc2ncc(N3C(=O)C4CCC3CC4)nc2cc1OC
- inhibition [17]: 14%

SMILES: COc1cc2ncc(NC3CCCCC3)nc2cc1OC
- bioavailability [18]: 16%
- bioavailability [19]: 17%

SMILES: COc1cc2ncc(N[C@@H]3CC[C@H](O)[C@@H](C)C3)nc2cc1OC
- IC50 (HASMC): 0.134 µM
- IC50 [1]: 0.018 µM

SMILES: COc1cc2cc(-c3ccsc3)cnc2cc1OC
- bioavailability [18]: 21%
- bioavailability [19]: 49%

Further lines, results first:

- inhibition [2]: 0%
- IC50 [3]: > 50 µM
- inhibition [4]: 0%
- IC50 [5]: 0.389 µM
- inhibition [6]: 7%
- bioavailability [7]: 82%
- inhibition [8]: 54%
- IC50 [9]: > 50 µM
- inhibition [10]: 2%
- inhibition [11]: 3%
- bioavailability [12]: 72%
- inhibition [13]: 17%
- IC50 [14]: > 10 µM
- IC50 [15]: > 50 µM
SMILES: COc1cc2ncc(N[C@H]3CC[C@H](O)CC3)nc2cc1OC

- IC50 [1]: 0.028 µM
SMILES: COc1cc2ncc(N[C@H]3CC[C@@H](C(=O)OC)CC3)nc2cc1OC

- inhibition [16]: 5%
- IC50 (HASMC): > 10 µM
SMILES: COc1cc2ncc(N[C@H]3CC[C@@H](O)[C@H](C)C3)nc2cc1OC

- inhibition [16]: 10%
SMILES: COc1cc2ncc(NC3CCC(C(=O)N4CCN(C)CC4)CC3)nc2cc1OC (stereo not drawn)

- IC50 (HASMC): 0.164 µM
- IC50 [1]: 0.024 µM
SMILES: COc1cc2ncc(N[C@@H]3CC4CC3C[C@H]4O)nc2cc1OC (stereo partly drawn)

- IC50 [1]: 0.345 µM
SMILES: COc1cc2ncc(N[C@H]3CC[C@H](C(=O)OC)CC3)nc2cc1OC

- inhibition [16]: -9%
SMILES: COc1cc2ncc(NC3CCCC(N)C3)nc2cc1OC (stereo not drawn)
